According to patent US5543498A, “Peptides to overcome inhibition of nerve growth” (The General Hospital Corporation, priority 1995, dated 1996):
Entries after “also recorded” stand apart in the source; their conditions may differ. Each block holds one substance with its values, some of them ahead of it. No end group written: not given here.

Key:
[1] = test system: Chick dorsal root ganglion (DRG) neurons; format: cell-based
Protocol: Chick DRGs from embryonic day 7 (E7) were explanted onto laminin-coated chamber slides in F12 medium with 10 ng/ml nerve growth factor and 10% fetal bovine serum. After 20 hours, peptide solutions or phosphate-buffered saline (PBS) in 1 mM DTT was added to the explants (225 μl) and the mixture incubated at 27° C. for one hour. BME, prepared following the procedure of J. A. Raper and J. P. Kapfhammer, Neuron 2:21 (1990), was added to the explants and incubated for 30 minutes. For each explant, all growth cones were scored as collapsed or fan-shaped (M. Igarashi et al., Science 259:77 (1993)).
In another series of experiments the GAP-43 1-10 peptide was added into the culture medium at 10^-8 M one hour prior to the addition of BME. After 30 minutes incubation with BME, the explant was fixed in glutaraldehyde and its growth cones were scored.
After exposing the PTX treated neurons to BME and the GAP-43 1-10, the amount of growth cone collapse was measured.
The procedure described in Example 2 was followed with the exception that one hour prior to the addition of BME (0.15 mg protein/ml) to the DRG culture medium, either the methionine or tyrosine mutant peptide was introduced at a concentration of 10^-4 M.

[2] = molecular target: Go (Homo sapiens, UniProt P09471); test: GTPγ S binding to Go (nitrocellulose filtration assay); format: biochemical; conditions: for effect of mutant decapeptides on GTPγ S binding to Go: peptide 250 μM, binding without peptides = 100%; for effect on GTPγ S binding to Go, dose response: oxidized (performic acid) vs control peptide, same concentration range
Go, sequence (P09471 whole entry): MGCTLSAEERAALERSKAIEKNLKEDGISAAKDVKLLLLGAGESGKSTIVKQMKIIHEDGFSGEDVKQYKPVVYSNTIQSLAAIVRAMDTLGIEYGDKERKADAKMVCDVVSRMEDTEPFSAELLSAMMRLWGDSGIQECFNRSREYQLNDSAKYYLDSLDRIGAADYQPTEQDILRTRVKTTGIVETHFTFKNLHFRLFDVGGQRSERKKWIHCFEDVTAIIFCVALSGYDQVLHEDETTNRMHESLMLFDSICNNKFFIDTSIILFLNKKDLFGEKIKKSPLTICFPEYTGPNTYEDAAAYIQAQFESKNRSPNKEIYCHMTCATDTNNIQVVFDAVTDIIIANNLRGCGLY
Protocol: The GAP-43 1-10 peptide was oxidized using performic acid according to the procedures of A. Roher et al., Proc. Natl. Acad. Sci. USA 83:2662 (1986). Briefly, 10 mM peptide was incubated with formic acid solution containing 3% H2 O2 at 25° C. for one hour. The activation state of Go was determined in a nitrocellulose filtration assay as described by S. M. Strittmatter et al., Proc. Natl. Acad. Sci. USA 90:5327 (1993).
Both cysteine residues at positions 3 and 4 in the native GAP-43 1-10 peptide were replaced with methionine, tyrosine, aspartate, glutamate, lysine, arginine, serine, and tryptophan. These mutant peptides were tested for their ability to influence GTPγ S binding to Go.

Substance: pertussis toxin [PTX, reference compound]
effect on growth cone collapse induced by BME ([1]; PTX 20 ng/ml, BME 0.075 mg/ml): do not inhibit the collapse induced by BME
effect on GAP-43 1-10 peptide potentiation of BME-induced growth cone collapse ([1]; PTX 20 ng/ml, BME 0.075 mg/ml plus 10^-8 M GAP-43 1-10 peptide, listed as pertussis toxin): blocks

effect of mutant decapeptides on GTPγ S binding to Go ([2]; listed as tyrosine): inhibits GTPγ S binding to Go
Substance: [3Y, 4Y]GAP43 (1-10) (MLYYMRRTKQ) [peptide-Y, GAP-43 1-10 peptide with both cysteines at positions 3 and 4 replaced with tyrosine]
effect of mutant decapeptides on GTPγ S binding to Go [2]: attenuate GTPγ S binding to Go; also recorded: antagonist of G protein stimulation
shift of BME dose response: BME needed to cause 50% collapse ([1]; DRG, 10^-4 M peptide, relative to no peptide): about twice
inhibition of growth cone collapse induced by BME ([1]; DRG, BME 0.15 mg protein/ml, peptide 10^-4 M one hour before BME): approximately 30%
effect of the peptides by themselves on growth cones ([1]; doses used for the BME dose response (FIG. 3C)): do not have any evident effect by themselves

effect on GTPγ S binding to Go, dose response ([2]; listed as Oxidation of the GAP-43 1-10 N terminus): dose-dependent inhibition
effect on GTPγ S binding to Go, dose response ([2]; listed as Oxidation of the GAP-43 1-10 N-terminus): dose-dependent inhibition
effect on GTPγ S binding to Go, dose response ([2]; listed as oxidation of the peptide by performic acid): inhibitory for Go
Substance: oxidized GAP-43 1-10 peptide: GAP-43 1-10 peptide oxidized using performic acid (MLCCMRRTKQ; also: oxidized using performic acid)
